Test results: ChEMBL document CHEMBL4619712, “Double-component diazeniumdiolate derivatives as anti-cancer agents” (Bioorg Med Chem, 2020)

Tests used:
MDA-MB-231 = assay: Anticancer activity against human MDA-MB-231 cells assessed as inhibition of cell growth after 72 hrs by MTT or MTS assay; assay type: functional, cell-based; details: MDA-MB-231, 72 h
CCRF-CEM = assay: Anticancer activity against human CCRF-CEM cells assessed as inhibition of cell growth after 72 hrs by MTT or MTS assay; assay type: functional, cell-based
BT-474 = assay: Anticancer activity against human BT474 cells assessed as inhibition of cell growth after 72 hrs by MTT or MTS assay; assay type: functional, cell-based; details: BT-474, 72 h
Jurkat E6.1 = assay: Anticancer activity against human Jurkat E6-1 cells assessed as inhibition of cell growth after 72 hrs by MTT or MTS assay; assay type: functional, cell-based; details: Jurkat E6.1, 72 h
A549 = assay: Anticancer activity against human A549 cells assessed as inhibition of cell growth after 72 hrs by MTT or MTS assay; assay type: functional, cell-based; details: A549, 72 h
[1] = Prodrug conversion assessed as Escherichia coli GST catalyzed NO release at 1 uM measured after 5 hrs in presence of GSH by DAF-FM DA reagent based fluorescence spectrophotometric analysis; assay type: ADME

| SMILES | IC50 (MDA-MB-231) [µM] | IC50 (CCRF-CEM) [µM] | IC50 (BT-474) [µM] | IC50 (Jurkat E6.1) [µM] | IC50 (A549) [µM] | fold change (FC) [1] |
| --- | --- | --- | --- | --- | --- | --- |
| CCOC(=O)N1CCN(/[N+]([O-])=N/Oc2ccc([N+](=O)[O-])cc2[N+](=O)[O-])CC1 | 7.93 | 0.89 | 3.66 | 0.92 | 2.11 | – |
| O=[N+]([O-])c1ccc(O/N=[N+](\[O-])N2CCN(CCN3CCN(/[N+]([O-])=N/Oc4ccc([N+](=O)[O-])cc4[N+](=O)[O-])CC3)CC2)c([N+](=O)[O-])c1 | 17.6 | 2.64 | 10.7 | 3.71 | 17.1 | 2 |
